Results reported in the supplement of paper PMC10307832.

Compound: COc1cc2ncn(-c3cc(OCc4ccccc4C(F)(F)F)c(C(N)=O)s3)c2cc1OC + COc1cc2c(Oc3ccc(NC(=O)C4(C(=O)Nc5ccc(F)cc5)CC4)cc3F)ccnc2cc1OCCCN1CCOCC1 [Foretinib] (partner 0.25 µM)
Assay: relative viability (nuclei count vs DMSO), 5 days (fraction); higher = more cells survive
How it was run: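 Lung cancer cell lines were pin-tool dosed in 1536-well plates on the day after seeding, with either a lone drug or a fixed anchor-drug dose plus five library-drug doses (not always all listed) in √10 steps. Nuclei were counted on 4× images after 5 days. Relative viability is the ratio of treated-well to vehicle-well nuclei counts, with each value a median of duplicate plates.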

Cell Line: EPLC-272H
- relative viability (first compound 0.1581 µM): 0.338
- relative viability (first compound 0.5 µM): 0.102
- relative viability (first compound 1.581 µM): 0.102
- relative viability (first compound 5 µM): 0.104

Cell Line: NCI-H596
- relative viability (first compound 0.05 µM): 1.03
- relative viability (first compound 0.1581 µM): 0.908
- relative viability (first compound 0.5 µM): 0.481
- relative viability (first compound 1.581 µM): 0.307
- relative viability (first compound 5 µM): 0.242

Cell Line: NCI-H1993
- relative viability (first compound 0.05 µM): 0.652
- relative viability (first compound 0.1581 µM): 0.884
- relative viability (first compound 0.5 µM): 0.662
- relative viability (first compound 1.581 µM): 0.579
- relative viability (first compound 5 µM): 0.569

Cell Line: NCI-H647
- relative viability (first compound 0.05 µM): 1.1
- relative viability (first compound 0.1581 µM): 1.17
- relative viability (first compound 0.5 µM): 0.444
- relative viability (first compound 1.581 µM): 0.195
- relative viability (first compound 5 µM): 0.0972

Cell Line: NCI-H1793
- relative viability (first compound 0.05 µM): 0.925
- relative viability (first compound 0.1581 µM): 0.825
- relative viability (first compound 0.5 µM): 0.506
- relative viability (first compound 1.581 µM): 0.24
- relative viability (first compound 5 µM): 0.164

Cell Line: NCI-H1563
- relative viability (first compound 0.05 µM): 0.839
- relative viability (first compound 0.1581 µM): 0.897
- relative viability (first compound 0.5 µM): 1.28
- relative viability (first compound 1.581 µM): 0.767
- relative viability (first compound 5 µM): 0.567

Cell Line: NCI-H1395
- relative viability (first compound 0.05 µM): 0.932
- relative viability (first compound 0.1581 µM): 1.01
- relative viability (first compound 0.5 µM): 0.686
- relative viability (first compound 1.581 µM): 0.448
- relative viability (first compound 5 µM): 0.556

Cell Line: NCI-H1299
- relative viability (first compound 0.05 µM): 1.1
- relative viability (first compound 0.1581 µM): 1.07
- relative viability (first compound 0.5 µM): 0.664
- relative viability (first compound 1.581 µM): 0.255
- relative viability (first compound 5 µM): 0.257

Cell Line: HCC-827
- relative viability (first compound 0.05 µM): 1.04
- relative viability (first compound 0.1581 µM): 0.987
- relative viability (first compound 0.5 µM): 0.718
- relative viability (first compound 1.581 µM): 0.277
- relative viability (first compound 5 µM): 0.213

Cell Line: ChaGo-K-1
- relative viability (first compound 0.05 µM): 0.915
- relative viability (first compound 0.1581 µM): 0.89
- relative viability (first compound 0.5 µM): 0.71
- relative viability (first compound 1.581 µM): 0.266
- relative viability (first compound 5 µM): 0.172

Cell Line: NCI-H2228
- relative viability (first compound 0.05 µM): 0.85
- relative viability (first compound 0.1581 µM): 0.739
- relative viability (first compound 0.5 µM): 0.351
- relative viability (first compound 1.581 µM): 0.1
- relative viability (first compound 5 µM): 0.162

Cell Line: NCI-H2170
- relative viability (first compound 0.05 µM): 0.942
- relative viability (first compound 0.1581 µM): 0.985
- relative viability (first compound 0.5 µM): 0.468
- relative viability (first compound 1.581 µM): 0.269
- relative viability (first compound 5 µM): 0.202

Cell Line: EMC-BAC-2
- relative viability (first compound 0.05 µM): 1.11
- relative viability (first compound 0.1581 µM): 1.01
- relative viability (first compound 0.5 µM): 0.815
- relative viability (first compound 1.581 µM): 0.309
- relative viability (first compound 5 µM): 0.212

Cell Line: A549
- relative viability (first compound 0.05 µM): 0.979
- relative viability (first compound 0.1581 µM): 1.03
- relative viability (first compound 0.5 µM): 0.423
- relative viability (first compound 1.581 µM): 0.0316
- relative viability (first compound 5 µM): 0.0318

Cell Line: NCI-H23
- relative viability (first compound 0.05 µM): 1.02
- relative viability (first compound 0.1581 µM): 0.759
- relative viability (first compound 0.5 µM): 0.564
- relative viability (first compound 1.581 µM): 0.123
- relative viability (first compound 5 µM): 0.138

Cell Line: SK-LU-1
- relative viability (first compound 0.05 µM): 0.811
- relative viability (first compound 0.1581 µM): 0.765
- relative viability (first compound 0.5 µM): 0.32
- relative viability (first compound 1.581 µM): 0.219
- relative viability (first compound 5 µM): 0.206

Cell Line: NCI-H358
- relative viability (first compound 0.05 µM): 0.724
- relative viability (first compound 0.1581 µM): 0.71
- relative viability (first compound 0.5 µM): 0.484
- relative viability (first compound 1.581 µM): 0.0999
- relative viability (first compound 5 µM): 0.0726

Cell Line: LC-2-ad
- relative viability (first compound 0.05 µM): 0.916
- relative viability (first compound 0.1581 µM): 0.946
- relative viability (first compound 0.5 µM): 0.506
- relative viability (first compound 1.581 µM): 0.286
- relative viability (first compound 5 µM): 0.303

Cell Line: HCC-15
- relative viability (first compound 0.05 µM): 0.98
- relative viability (first compound 0.1581 µM): 0.919
- relative viability (first compound 0.5 µM): 0.334
- relative viability (first compound 1.581 µM): 0.16
- relative viability (first compound 5 µM): 0.124

Cell Line: NCI-H2405
- relative viability (first compound 0.05 µM): 0.998
- relative viability (first compound 0.1581 µM): 0.817
- relative viability (first compound 0.5 µM): 0.531
- relative viability (first compound 1.581 µM): 0.359
- relative viability (first compound 5 µM): 0.361

Cell Line: LXF-289
- relative viability (first compound 0.05 µM): 0.92
- relative viability (first compound 0.1581 µM): 0.858
- relative viability (first compound 0.5 µM): 0.483
- relative viability (first compound 1.581 µM): 0.158
- relative viability (first compound 5 µM): 0.0736

Cell Line: CAL-12T
- relative viability (first compound 0.05 µM): 0.981
- relative viability (first compound 0.1581 µM): 0.974
- relative viability (first compound 0.5 µM): 0.907
- relative viability (first compound 1.581 µM): 0.193
- relative viability (first compound 5 µM): 0.216

Cell Line: COR-L23
- relative viability (first compound 0.05 µM): 0.94
- relative viability (first compound 0.1581 µM): 1.04
- relative viability (first compound 0.5 µM): 0.663
- relative viability (first compound 1.581 µM): 0.158
- relative viability (first compound 5 µM): 0.118

Cell Line: NCI-H1755
- relative viability (first compound 0.05 µM): 0.583
- relative viability (first compound 0.1581 µM): 0.896
- relative viability (first compound 0.5 µM): 0.635
- relative viability (first compound 1.581 µM): 0.362
- relative viability (first compound 5 µM): 0.315

Cell Line: NCI-H1437
- relative viability (first compound 0.05 µM): 1.38
- relative viability (first compound 0.1581 µM): 1.17
- relative viability (first compound 0.5 µM): 0.456
- relative viability (first compound 1.581 µM): 0.267
- relative viability (first compound 5 µM): 0.194

Cell Line: NCI-H2085
- relative viability (first compound 0.05 µM): 0.931
- relative viability (first compound 0.1581 µM): 1
- relative viability (first compound 0.5 µM): 0.566
- relative viability (first compound 1.581 µM): 0.294
- relative viability (first compound 5 µM): 0.31

Cell Line: IA-LM
- relative viability (first compound 0.05 µM): 1.16
- relative viability (first compound 0.1581 µM): 0.987
- relative viability (first compound 0.5 µM): 0.328
- relative viability (first compound 1.581 µM): 0.0521
- relative viability (first compound 5 µM): 0.0505

Cell Line: H3255
- relative viability (first compound 0.05 µM): 0.876
- relative viability (first compound 0.1581 µM): 1.06
- relative viability (first compound 0.5 µM): 0.714
- relative viability (first compound 5 µM): 0.542

Cell Line: NCI-H661
- relative viability (first compound 0.05 µM): 0.908
- relative viability (first compound 0.1581 µM): 0.866
- relative viability (first compound 0.5 µM): 0.854
- relative viability (first compound 1.581 µM): 0.322
- relative viability (first compound 5 µM): 0.27

Cell Line: LCLC-103H
- relative viability (first compound 0.05 µM): 0.646
- relative viability (first compound 0.1581 µM): 0.831
- relative viability (first compound 0.5 µM): 0.537
- relative viability (first compound 1.581 µM): 0.199
- relative viability (first compound 5 µM): 0.131

Cell Line: LOU-NH91
- relative viability (first compound 0.05 µM): 0.933
- relative viability (first compound 0.1581 µM): 0.978
- relative viability (first compound 0.5 µM): 0.754
- relative viability (first compound 1.581 µM): 0.423
- relative viability (first compound 5 µM): 0.713

Cell Line: NCI-H1650
- relative viability (first compound 0.05 µM): 1.04
- relative viability (first compound 0.1581 µM): 1.01
- relative viability (first compound 0.5 µM): 1.08
- relative viability (first compound 1.581 µM): 0.13
- relative viability (first compound 5 µM): 0.139

Cell Line: NCI-H3122
- relative viability (first compound 0.05 µM): 0.976
- relative viability (first compound 0.1581 µM): 0.93
- relative viability (first compound 0.5 µM): 0.241
- relative viability (first compound 1.581 µM): 0.123
- relative viability (first compound 5 µM): 0.148

Cell Line: RERF-LC-KJ
- relative viability (first compound 0.05 µM): 0.957
- relative viability (first compound 0.1581 µM): 0.901
- relative viability (first compound 0.5 µM): 0.791
- relative viability (first compound 5 µM): 0.625

Cell Line: Calu-6
- relative viability (first compound 0.05 µM): 0.791
- relative viability (first compound 0.1581 µM): 0.612
- relative viability (first compound 0.5 µM): 0.203
- relative viability (first compound 1.581 µM): 0.0691
- relative viability (first compound 5 µM): 0.0725

Cell Line: NCI-H1651
- relative viability (first compound 0.05 µM): 0.832
- relative viability (first compound 0.1581 µM): 0.893
- relative viability (first compound 0.5 µM): 0.655
- relative viability (first compound 1.581 µM): 0.118
- relative viability (first compound 5 µM): 0.102

Cell Line: NCI-H2087
- relative viability (first compound 0.05 µM): 1.16
- relative viability (first compound 0.1581 µM): 1.21
- relative viability (first compound 0.5 µM): 0.261
- relative viability (first compound 1.581 µM): 0.117
- relative viability (first compound 5 µM): 0.128
